Reference: ChEMBL document CHEMBL1201862, “PubChem BioAssay data set” (2004)
Each block holds one compound with its values, some of them ahead of it. Active and inactive are the calls of the source.

How the values were obtained:
[1] = target: Glucose-6-phosphate 1-dehydrogenase (Homo sapiens, UniProt P11413); test: inhibition of Homo sapiens G6PD, dose series – biochemical, fluorescence, selectivity assay for P. falciparum G6PD inhibitor project, dose response (AID 504792); type: functional
[2] = target: T1, Zinc finger protein mex-5 (Caenorhabditis elegans, UniProt Q9XUB2); test: potency of MEX-5 RNA-binding blockers – biochemical, C. elegans, fluorescence polarization, dose response (AID 1960)
T1 sequence (Q9XUB2 whole entry): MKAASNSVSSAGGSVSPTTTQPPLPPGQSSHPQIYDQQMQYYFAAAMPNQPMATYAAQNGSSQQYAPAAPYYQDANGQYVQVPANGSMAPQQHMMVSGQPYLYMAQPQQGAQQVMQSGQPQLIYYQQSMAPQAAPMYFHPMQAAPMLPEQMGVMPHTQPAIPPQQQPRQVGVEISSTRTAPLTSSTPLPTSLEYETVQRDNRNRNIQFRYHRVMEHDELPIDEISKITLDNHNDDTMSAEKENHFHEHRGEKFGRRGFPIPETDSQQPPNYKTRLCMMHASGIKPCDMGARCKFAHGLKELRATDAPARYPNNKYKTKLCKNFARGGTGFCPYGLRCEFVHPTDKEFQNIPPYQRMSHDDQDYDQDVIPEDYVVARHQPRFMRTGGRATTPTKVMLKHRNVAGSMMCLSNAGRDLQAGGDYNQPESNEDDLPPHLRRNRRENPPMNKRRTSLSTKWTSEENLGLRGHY

[3] = target: T2, Heat shock factor protein 1 (Mus musculus, UniProt P38532); test: enhancement of HSF1-driven luciferase signal – cell-based, NIH3T3, luminescence, dose retest, confirmation (AID 435004); type: functional;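 note: stress induced by proteasome inhibitor MG132 added 30 min after compound; luciferase reporter driven by HSF1 response element in NIH3T3 cells; actives raise luminescence as potentiators of the MG132 stress response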
T2 sequence (P38532 whole entry): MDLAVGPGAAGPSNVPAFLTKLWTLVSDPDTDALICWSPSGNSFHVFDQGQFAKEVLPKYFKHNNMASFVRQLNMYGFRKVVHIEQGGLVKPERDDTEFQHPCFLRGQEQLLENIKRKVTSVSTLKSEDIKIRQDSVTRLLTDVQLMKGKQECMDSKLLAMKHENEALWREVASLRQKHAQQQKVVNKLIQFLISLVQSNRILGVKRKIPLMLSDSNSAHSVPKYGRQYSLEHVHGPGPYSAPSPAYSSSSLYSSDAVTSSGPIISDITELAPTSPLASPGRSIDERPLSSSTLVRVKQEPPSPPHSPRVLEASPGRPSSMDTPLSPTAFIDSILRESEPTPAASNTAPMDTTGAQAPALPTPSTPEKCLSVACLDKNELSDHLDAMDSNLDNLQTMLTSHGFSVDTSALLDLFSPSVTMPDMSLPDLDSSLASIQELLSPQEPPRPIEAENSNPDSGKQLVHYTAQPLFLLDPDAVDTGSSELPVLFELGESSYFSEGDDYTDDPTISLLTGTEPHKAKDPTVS

[4] = target: T3, RNA-binding protein pos-1 (Caenorhabditis elegans, UniProt G5EF15); test: disruptors of C. elegans POS-1 RNA interaction – biochemical, fluorescence polarization, dose response (AID 1964);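 note: purified POS-1 fused to maltose binding protein made in E. coli; potency of compounds blocking POS-1 binding to fluorescent RNA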
T3 sequence (G5EF15 whole entry): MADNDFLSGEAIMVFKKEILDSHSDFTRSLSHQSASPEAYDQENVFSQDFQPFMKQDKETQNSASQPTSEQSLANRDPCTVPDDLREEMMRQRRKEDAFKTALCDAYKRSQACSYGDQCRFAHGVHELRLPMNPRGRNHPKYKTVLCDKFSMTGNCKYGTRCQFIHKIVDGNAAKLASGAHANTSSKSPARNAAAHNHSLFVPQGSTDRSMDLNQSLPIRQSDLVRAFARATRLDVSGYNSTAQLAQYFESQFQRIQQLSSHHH

[5] = MIN6 cell viability loss – mouse insulinoma, cytotoxicity control, dose response (AID 2122); type: functional;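 note: confirmatory high-throughput counterscreen run to flag cytotoxic compounds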
HEK293 = test: EBV LMP1 TES2 canonical NF-kB signalling blockers – cell-based, HEK293, luciferase, cherry-pick, dose response (AID 588343); type: functional; conditions: Homo sapiens
[6] = decrease of insulin promoter-GFP reporter – imaging, high-content screening, mouse beta cells (AID 1628); type: functional; conditions: MIN6
[7] = target: FAD-linked sulfhydryl oxidase ALR (Homo sapiens, UniProt P55789); test: ALR-catalysed DTT oxidation blockers – biochemical, H2O2 detection, luminescence, cherry-pick, dose response (AID 493248)
Chain of FAD-linked sulfhydryl oxidase ALR (P55789 whole entry): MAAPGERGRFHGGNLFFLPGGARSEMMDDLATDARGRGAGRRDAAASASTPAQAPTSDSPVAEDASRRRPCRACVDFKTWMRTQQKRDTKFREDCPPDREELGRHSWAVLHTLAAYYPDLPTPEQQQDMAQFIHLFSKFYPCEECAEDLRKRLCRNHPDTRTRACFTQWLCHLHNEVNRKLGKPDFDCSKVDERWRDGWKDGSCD

Large T antigen = Large T antigen (Simian virus 40, UniProt P03070); type: functional, Betapolyomavirus macacae;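 note: Confirmatory-stage PubChem screen for compounds that inhibit SV40 T antigen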
Chain of Large T antigen (P03070 whole entry): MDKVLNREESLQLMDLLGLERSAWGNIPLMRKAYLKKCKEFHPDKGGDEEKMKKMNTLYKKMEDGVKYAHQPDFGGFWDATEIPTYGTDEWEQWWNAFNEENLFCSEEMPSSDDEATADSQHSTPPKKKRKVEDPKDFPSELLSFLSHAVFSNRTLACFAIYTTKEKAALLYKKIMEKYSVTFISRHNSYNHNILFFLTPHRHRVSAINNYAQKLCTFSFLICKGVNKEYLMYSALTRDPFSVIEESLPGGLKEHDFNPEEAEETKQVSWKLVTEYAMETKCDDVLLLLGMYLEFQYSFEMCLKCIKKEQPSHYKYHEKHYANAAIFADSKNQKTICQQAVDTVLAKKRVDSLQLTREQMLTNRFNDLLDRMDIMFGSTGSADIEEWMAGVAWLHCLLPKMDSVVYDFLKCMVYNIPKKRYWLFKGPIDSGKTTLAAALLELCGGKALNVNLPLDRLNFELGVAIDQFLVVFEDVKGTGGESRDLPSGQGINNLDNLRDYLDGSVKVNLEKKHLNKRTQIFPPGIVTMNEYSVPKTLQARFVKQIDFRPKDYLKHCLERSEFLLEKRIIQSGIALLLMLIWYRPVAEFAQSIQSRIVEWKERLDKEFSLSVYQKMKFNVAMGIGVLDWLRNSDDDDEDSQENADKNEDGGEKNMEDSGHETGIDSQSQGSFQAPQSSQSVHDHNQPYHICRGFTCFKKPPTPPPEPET

SUMO-activating enzyme [8] = target: T4, SUMO-activating enzyme (Homo sapiens, UniProt Q9UBT2); test: blockers of UBC9-mediated SUMO conjugation – biochemical, AlphaScreen, SUMOylation inhibitor project, confirmation (AID 2018); type: functional
T4 sequence (Q9UBE0 whole entry): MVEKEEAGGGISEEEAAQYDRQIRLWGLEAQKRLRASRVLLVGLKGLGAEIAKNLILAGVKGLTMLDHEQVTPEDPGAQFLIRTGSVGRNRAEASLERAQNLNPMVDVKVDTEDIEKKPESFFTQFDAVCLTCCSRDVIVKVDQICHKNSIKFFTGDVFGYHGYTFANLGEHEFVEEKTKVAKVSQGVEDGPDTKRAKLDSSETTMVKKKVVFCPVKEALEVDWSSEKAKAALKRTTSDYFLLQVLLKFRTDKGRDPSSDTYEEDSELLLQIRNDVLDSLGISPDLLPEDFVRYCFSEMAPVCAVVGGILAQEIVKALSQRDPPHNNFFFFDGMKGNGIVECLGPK
T4 sequence (Q9UBT2 whole entry): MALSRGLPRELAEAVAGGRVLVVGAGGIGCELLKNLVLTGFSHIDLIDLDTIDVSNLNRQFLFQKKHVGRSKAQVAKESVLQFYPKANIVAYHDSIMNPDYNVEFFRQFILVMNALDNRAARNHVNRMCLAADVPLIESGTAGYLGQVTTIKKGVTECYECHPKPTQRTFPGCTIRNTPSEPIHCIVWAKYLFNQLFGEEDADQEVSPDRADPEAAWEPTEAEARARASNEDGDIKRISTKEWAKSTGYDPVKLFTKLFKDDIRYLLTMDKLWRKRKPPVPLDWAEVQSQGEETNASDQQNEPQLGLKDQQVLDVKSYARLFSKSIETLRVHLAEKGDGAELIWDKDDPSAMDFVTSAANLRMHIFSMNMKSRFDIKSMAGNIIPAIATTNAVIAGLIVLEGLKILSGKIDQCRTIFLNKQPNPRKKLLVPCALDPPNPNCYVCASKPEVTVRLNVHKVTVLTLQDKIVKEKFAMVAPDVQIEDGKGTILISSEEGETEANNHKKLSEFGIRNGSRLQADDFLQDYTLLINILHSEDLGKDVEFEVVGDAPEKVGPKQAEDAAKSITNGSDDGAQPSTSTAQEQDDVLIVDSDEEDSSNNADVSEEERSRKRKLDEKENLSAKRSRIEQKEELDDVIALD

SUMO-activating enzyme [9] = target: T4, SUMO-activating enzyme; test: blockers of SAE1/SAE2–UBC9 SUMO transfer – biochemical, HTRF, uHTS, primary screen (AID 2006); type: protein-complex assay
[10] = loss of viability in HepG2 cells – cell-based, CellTiter-Glo, cherry-picked, cytotoxicity control for Shn3 inhibitor project, dose response (AID 624134); type: functional
[11] = reduction of Shn3 3'UTR-driven luciferase in osteoblasts – cell-based, Clone20 osteoblasts, firefly luciferase, cherry-picked, dose response (AID 624132); type: functional;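 note: firefly luciferase luminescence from reporter carrying the Shn3 3'UTR in osteoblasts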
[12] = non-specific 3'UTR reporter inhibition in Clone20-Shn3RL – cell-based, Renilla luciferase, cherry-picked, counter-screen for Shn3 inhibitor project, dose response (AID 624133); type: functional

Chain of Glucose-6-phosphate 1-dehydrogenase (P11413 whole entry): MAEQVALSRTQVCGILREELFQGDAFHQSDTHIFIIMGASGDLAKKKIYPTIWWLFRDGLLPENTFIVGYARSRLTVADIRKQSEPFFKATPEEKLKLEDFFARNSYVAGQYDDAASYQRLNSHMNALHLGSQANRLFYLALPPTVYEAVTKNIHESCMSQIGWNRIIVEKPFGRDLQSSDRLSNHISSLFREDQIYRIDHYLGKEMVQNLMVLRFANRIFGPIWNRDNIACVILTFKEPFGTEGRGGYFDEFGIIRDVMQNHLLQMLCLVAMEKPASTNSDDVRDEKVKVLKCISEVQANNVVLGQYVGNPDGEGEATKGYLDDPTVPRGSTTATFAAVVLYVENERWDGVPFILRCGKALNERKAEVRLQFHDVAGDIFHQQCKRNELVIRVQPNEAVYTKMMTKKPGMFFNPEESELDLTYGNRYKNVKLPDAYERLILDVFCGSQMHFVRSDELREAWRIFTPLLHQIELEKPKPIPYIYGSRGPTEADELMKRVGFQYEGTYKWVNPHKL

IC50 [1]: > 80 µM (inactive)
EC50 [2]: 20.6 µM (inconclusive)
EC50 [3]: 20 µM (active)
EC50 [4]: > 300 µM (not active)
Compound: Oc1ccc(C2C[C@H]3CC[C@@H]2C3)cc1O (stereo partly specified)

Compound: Cc1cccc(NC(=S)N=Nc2c(O)n(C)c3ccc(S(=O)(=O)N4CCOCC4)cc23)c1
IC50 [5]: 5.04 µM (active)
AC50 (HEK293): 0.985 µM (active)
IC50 [6]: 6.3 µM (active)

AC50 [7]: 1.95 µM (active)
IC50 (Large T antigen): 69.2 µM (active)
IC50 (SUMO-activating enzyme [8]): 7.66 µM (active)
IC50 (SUMO-activating enzyme [9]): 59.1 µM (active)
Compound: Sc1nnc(-c2ccc(Cl)cc2)n1/N=C/C=C/c1ccco1

Compound: O=C(CN(C(=O)c1ccc(Cl)cc1)C1CCCCC1)Nc1ccc(Cl)c([N+](=O)[O-])c1
IC50 [5]: 1.85 µM (active)
AC50 [10]: 52.6 µM (active)
AC50 [11]: 8.11 µM (active)
IC50 [6]: 3.45 µM (active)
AC50 [12]: 20.6 µM (active)
